In data set [1] the test system is HepaRG spheroids. The data set can be described thus: Repeated-exposure toxicity in HepaRG spheroids with or without BA mixture, cellular ATP content. In kind it is cell-based, human. The note with it: for CIx (mean of the independent experiments): 8 days co-exposure with BAs vs compound alone; for CC50: Homo sapiens, HepaRG, compound alone, read-out: Without BA EC50; for CC50 / Cholestatic Index (EC50 (+BA) / EC50 (-BA)): ATP, one value per independent experiment. On the procedure: Cryopreserved differentiated HepaRG cells (Biopredic International, France) were thawed according to the supplier’s instructions. The cells were seeded in Williams’ medium E with GlutaMAX^TM containing the thaw, seed and general purpose additive (ADD670; Biopredic International). The cells were seeded at a density of 2,000 viable cells per well in ULA plates. From day 5, the spheroids were maintained in medium containing 0.5% DMSO, the serum-free induction additive (ADD650, Biopredic International), 20 ng/ml epidermal growth factor and 10 ng/ml hepatocyte growth factor (HumaXpress, Nordic BioSite, Sweden).
(§1) Toxicity studies were started at day 8 and day 5 for PHH and HepaRG spheroids, respectively.

For data set [2], the system named is multi-donor PHH spheroids. As to the kind of experiment: Repeated-exposure toxicity in multi-donor PHH spheroids with or without BA mixture, albumin secretion. In kind it is cell-based, human. Conditions: for EC50: Homo sapiens, 336 h, 14 days repeated exposure; for Cholestatic Index (EC50 (+BA) / EC50 (-BA)) / Cholestatic risk classification based on CIx: 14 days; for Cholestatic risk classification based on CIx: multi-donor PHH spheroids. The procedure:
The cells were seeded in PHH medium (Williams’ medium E containing 100 units/ml penicillin, 100 μg/ml streptomycin, 2 mM L-glutamine, 10 μg/ml insulin, 5.5 μg/ml transferrin, 6.7 ng/ml sodium selenite, 100 nM dexamethasone) supplemented with 10% fetal bovine serum. […] When PHH had reassembled into compact aggregates (day 4–6 after seeding), spheroids were shifted to serum-free PHH medium. […] The spheroids were maintained in serum-free PHH medium.
as §1

The subject of data set [3] is ABCB11, SRXN1, NFE2L2, DR5 expression in PHH spheroids. As to the kind of experiment: RT-qPCR gene expression in PHH spheroids. In kind it is cell-based, human. The note with it: 8 days, co-exposure with non-toxic BA mixture compared to compound or BAs alone. On the procedure:
(§2) Total RNA was extracted using Qiazol according to the manufacturer’s protocol. RNA was reverse-transcribed into cDNA with SuperScript III reverse transcriptase. RT-qPCR analysis was performed with a 7500 Fast Real-Time PCR system using a TaqMan Universal or SYBR Green mix.
For orientation: Quantitative PCR measures a nucleic acid by following its amplification.

For data set [4], the system named is ABCB11, SRXN1, NFE2L2, DR5 expression in HepaRG spheroids. The data set can be described thus: RT-qPCR gene expression in HepaRG spheroids. The class given is cell-based, human. The note with it: 8 days, co-exposure with non-toxic BA mixture compared to compound or BAs alone. The procedure:
as §2

For data set [5], the system named is PHH spheroids. The data set can be described thus: Repeated-exposure toxicity in PHH spheroids with or without BA mixture, cellular ATP content.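 As to all read-outs here: primary human hepatocyte spheroids dosed every second day with compound, with or without a bile acid mixture, viability read as cellular ATP by luminescence.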 Conditions: for CC50: Homo sapiens; for CC50 / Cholestatic Index (EC50 (+BA) / EC50 (-BA)): one value per independent experiment; for CIx (mean of the independent experiments): 8 days co-exposure with BAs vs compound alone; for Cholestatic Index (EC50 (+BA) / EC50 (-BA)): ATP.
Protocol: Cryopreserved PHH (Bioreclamation IVT, USA) were thawed according to the supplier’s instructions. The cells were seeded in PHH medium (Williams’ medium E containing 100 units/ml penicillin, 100 μg/ml streptomycin, 2 mM L-glutamine, 10 μg/ml insulin, 5.5 μg/ml transferrin, 6.7 ng/ml sodium selenite, 100 nM dexamethasone) supplemented with 10% fetal bovine serum. The cells were seeded at a density of 1,500 viable cells per well in ultra-low attachment (ULA) plates (Corning). When PHH had reassembled into compact aggregates (day 4–6 after seeding), spheroids were shifted to serum-free PHH medium. […] The hepatocytes were derived from 5 male and 5 female donors and were aggregated into 3D microtissues in GravityPLUS™ hanging drop plates and cultivated and assayed in GravityTRAP™ plates. The spheroids were maintained in serum-free PHH medium.
(§3) Stock solutions of the compounds were diluted in culture medium to a maximal final DMSO concentration of 0.3% for PHH spheroids and 0.6% for HepaRG spheroids. Toxicity studies were started at day 8 and day 5 for PHH and HepaRG spheroids, respectively. Spheroids were treated every other day with the compounds in the presence or absence of the BA mixture. Cellular ATP content was determined as a marker of cell viability using the CellTiter-Glo Luminescent Cell Viability Assay (Promega, Sweden). When indicated, albumin concentrations were determined by ELISA (Bethyl laboratories, USA).
(§4) To evaluate the cholestatic risk of the tested compounds we introduced the cholestatic index (CIx). The CIx is defined as the ratio between the EC50-value from co-exposure to a compound and the BA mixture and the EC50-value from exposure to the compound alone.

Data set [6] deals with BSEP. Conditions: quoted in the discussion, no reference given; read-out: BSEP inhibition IC50; cited from earlier work.
The subject of data set [7] is PHH spheroids. As to the kind of experiment: Toxicity in PHH spheroids with or without BA mixture, albumin secretion read-out (Supplementary Fig. S2). Conditions: 8 days, Supplementary Fig. S2B.
Protocol: as §3, §4
Where [8] appears, read: 192 h, 8 days repeated exposure.
Where [9] appears, read: 336 h, 14 days repeated exposure.
[10] abbreviates: multi-donor PHH spheroids (10 donors), co-exposure with BA mixture, albumin secretion, read-out: With BA EC50.
The mark [11] stands for this setting: multi-donor PHH spheroids (10 donors), compound alone, albumin secretion, read-out: Without BA EC50.
The mark [12] stands for this setting: 192 h, read-out: Without BA EC50, PHH spheroids, 8 days repeated exposure, compound alone, ATP.
Where [13] appears, read: 336 h, read-out: Without BA EC50, PHH spheroids, 14 days repeated exposure, compound alone, ATP.
Where [14] appears, read: multi-donor PHH spheroids (10 donors), albumin secretion.

Values joined by “and” are separate entries in the source; they are usually repeats but may differ in a detail not shown here. Identical values can stand only once. Like-named read-outs stand apart in the source and are kept apart here.

For `CC(=O)Nc1ccc(O)cc1` [Acetaminophen, acetaminophen], the “CIx (mean of the independent experiments)” value in data set [1] was 1.02 ± 0.03; in data set [5] (PHH spheroids) it was 1.89 ± 0.37. Moreover, the CC50 turned out to be 1600 µM in data set [1] (setting [8]), 1000 µM in data set [1] (setting [9]), 1090 µM in data set [5] (setting [12]) and 804 µM in data set [5] (setting [13]). In addition, the figures for the EC50 in data set [2] (setting [10]) and in data set [2] (setting [11]) were 1830 µM and 1910 µM, respectively. Moreover, the DR5 expression entry in data set [3] and in data set [4] was “no induction of DR5” throughout. For the same compound, the NFE2L2 expression entry in data set [3] and in data set [4] was “no changes in SRXN1 or NFE2L2 expression” in each case. The SRXN1 expression entry in data set [3] and in data set [4] was “no changes in SRXN1 or NFE2L2 expression” throughout.

On to `COc1ccccc1Oc1c(NS(=O)(=O)c2ccc(C(C)(C)C)cc2)nc(-c2ncccn2)nc1OCCO` [Bosentan, bosentan], for which the “Cholestatic risk classification based on CIx” value in data set [1] (8 days) is on record as “cholestatic risk (compounds with a CIx ≤ 0.80 were considered to have cholestatic risk)”; in data set [5] (PHH spheroids, 8 days) it was “cholestatic risk (compounds with a CIx ≤ 0.80 were considered to have cholestatic risk)”. Besides, the “CIx (mean of the independent experiments)” value came to 0.60 ± 0.06 in data set [1] and 0.19 ± 0.12 in data set [5] (PHH spheroids). For the same compound, the “Cholestatic Index (EC50 (+BA) / EC50 (-BA))” value in data set [1] (8 days) was 0.63 and 0.54 and 0.64; in data set [1] (14 days), 0.61 and 0.50 and 0.48; in data set [2] (both, human), 0.53; in data set [5] (PHH spheroids, 14 days), 0.11 and 0.12 and 0.16. The CC50 worked out at 187 µM in data set [1] (setting [8]), 115 µM in data set [1] (setting [9]), 66 µM in data set [5] (setting [12]) and 55 µM in data set [5] (setting [13]). Moreover, the EC50 – broadly, the concentration at which the effect is half-maximal – in data set [2] (setting [10]) was found to be 54 µM; in data set [2] (setting [11]), 102 µM. The IC50 (in general, the point on the concentration scale where inhibition reaches its midpoint) in data set [6] is 38.1 µM.

With `CCC(=O)O[C@H]1[C@H](O[C@@H]2[C@@H](C)[C@H](O[C@H]3C[C@@](C)(OC)[C@@H](O)[C@H](C)O3)[C@@H](C)C(=O)O[C@H](CC)[C@@](C)(O)[C@H](O)[C@@H](C)C(=O)[C@H](C)C[C@@]2(C)O)O[C@H](C)C[C@@H]1N(C)C` [Erythromycin estolate, erythromycin estolate], the values for the EC50 in data set [2] (setting [10]) and in data set [2] (setting [11]) were 18 µM and 28 µM, respectively. The “Cholestatic Index (EC50 (+BA) / EC50 (-BA))” value in data set [2] (setting [14]) amounted to 0.64. Also, in data set [2], the “Cholestatic risk classification based on CIx” value is “cholestatic risk (compounds with a CIx ≤ 0.80 were considered to have cholestatic risk)”.

Take `CN(CCOc1ccc(CC2SC(=O)NC2=O)cc1)c1ccccn1` (centres unmarked) [Rosiglitazone, rosiglitazone]: the values for the EC50 in data set [2] (setting [10]) and in data set [2] (setting [11]) were 17 µM and 19 µM, respectively. Also, the “Cholestatic Index (EC50 (+BA) / EC50 (-BA))” value in data set [2] (both, human) was 0.89.

As to `CN(C)[C@@H]1C(O)=C(C(N)=O)C(=O)[C@@]2(O)C(O)=C3C(=O)c4c(O)cccc4[C@@](C)(O)[C@H]3C[C@@H]12` [Tetracycline, tetracycline], the “Cholestatic risk classification based on CIx” value is given as “low cholestatic risk (Compounds with a CIx ≥ 0.80)” in data set [1] (8 days); “low cholestatic risk (Compounds with a CIx ≥ 0.80)” in data set [1] (14 days); “low cholestatic risk (Compounds with a CIx ≥ 0.80)” in data set [2]; “low cholestatic risk (Compounds with a CIx ≥ 0.80)” in data set [5] (PHH spheroids, 8 days); “low cholestatic risk (Compounds with a CIx ≥ 0.80)” in data set [5] (PHH spheroids, 14 days). Moreover, the “CIx (mean of the independent experiments)” value is 1.05 ± 0.12 in data set [1] and 1.00 ± 0.08 in data set [5] (PHH spheroids). For the same compound, the “Cholestatic Index (EC50 (+BA) / EC50 (-BA))” value in data set [1] (8 days) was 0.91 and 1.13 and 1.12; in data set [1] (14 days), 0.95 and 1.18 and 1.16; in data set [2] (setting [14]), 1.03; in data set [5] (PHH spheroids, 8 days) it was 1.01 and 0.91 and 1.07; in data set [5] (PHH spheroids, 14 days), 1.41 and 1.07 and 0.94. Moreover, the CC50 in data set [1] (setting [8]) was 242 µM; in data set [1] (setting [9]), 121 µM; in data set [5] (setting [12]) it was 116 µM; in data set [5] (setting [13]), 74 µM. The half-maximal effective concentration (EC50) in data set [2] (setting [10]) is 123 µM; in data set [2] (setting [11]), 120 µM. Moreover, the CIx in data set [5] (PHH spheroids, 8 days, cellular ATP content read-out, Supplementary Fig. S2A) worked out at 0.87; in data set [7] it was 1.08.

Take `Clc1ccccc1CN1CCc2sccc2C1` [Ticlopidine, ticlopidine]: the EC50 worked out at 21 µM in data set [2] (setting [10]) and 23 µM in data set [2] (setting [11]).

Take `Cc1ccc(C(=O)c2cc(O)c(O)c([N+](=O)[O-])c2)cc1` [Tolcapone, tolcapone]: the 50% effective concentration (EC50) in data set [2] (setting [10]) was 13 µM; in data set [2] (setting [11]), 14 µM. The “Cholestatic Index (EC50 (+BA) / EC50 (-BA))” value in data set [2] (both, human) is reported as 0.93.

Regarding `Cc1c(C)c2c(c(C)c1O)CCC(C)(COc1ccc(CC3SC(=O)NC3=O)cc1)O2` (centres unmarked) [Troglitazone, troglitazone], the “Cholestatic risk classification based on CIx” value in data set [1] (8 days) was “cholestatic risk (compounds with a CIx ≤ 0.80 were considered to have cholestatic risk)”; in data set [5] (PHH spheroids, 8 days), “cholestatic risk (compounds with a CIx ≤ 0.80 were considered to have cholestatic risk)”. Further, the “CIx (mean of the independent experiments)” value came to 0.71 ± 0.17 in data set [1] and 0.80 ± 0.17 in data set [5] (PHH spheroids). Moreover, the “Cholestatic Index (EC50 (+BA) / EC50 (-BA))” value in data set [1] (8 days) is 0.56 and 0.90 and 0.67; in data set [2] (both, human), 0.63; in data set [5] (PHH spheroids, 8 days), 0.99 and 0.72 and 0.67; in data set [5] (PHH spheroids, 14 days), 0.45 and 0.67 and 0.86. Also, the concentration giving a half-maximal response (EC50) in data set [2] (setting [10]) came out at 8.8 µM; in data set [2] (setting [11]), 14 µM. Further, in data set [6], the 50% inhibitory concentration (IC50) was 2.7 µM. Also, the results for the CC50 in data set [5] (setting [12]) and in data set [5] (setting [13]) were 11 µM and 6.2 µM, respectively.
